Measurements taken from patent US20200163984A1, “USE OF ISOVALERYL SPIRAMYCIN I, II AND/OR III IN MANUFACTURING MEDICAMENT FOR TREATING AND/OR PREVENTING TUMOR, AND MEDICAMENT” (SHENYANG FUYANG PHARMACEUTICAL TECHNOLOGY CO., LTD., priority 2017, published 2020).
Converted amounts (≈) assume the structure as drawn.

How the values were obtained:
[1] = test system: transplanted tumor of mouse H22 liver cancer; assay: Transplanted tumor of mouse H22 liver cancer; conditions: for Tumor Volume (mm3) (d30): d 30
Description: The H22 cell strains cryopreserved in liquid nitrogen were resuscitated in Kunming mice. After 3 generations, the ascites of Kunming mice were taken and placed in a 50 ml centrifuge tube in which 10 ml of 0.9% normal saline was added, and then centrifuging was performed at 1000 rpm for 5 min at room temperature, and the obtained supernatant was removed. Then 10 ml of 0.9% normal saline was added to the tube to blow and mix well, and then the mixture was diluted to 5×10^6 live cells/ml with normal saline after counting. The tube was stored in ice water, and 75% ethanol was used to disinfect the skin under the right armpits of the mice. Each Kunming mouse was soon inoculated subcutaneously with 0.2 ml of the cells at the armpit of the right forelimb.
In the H22 liver cancer model, the mice inoculated with the tumor were randomly divided into groups with 10 mice in each group on the next day of inoculation. The groups included: a model control group, a positive drug cyclophosphamide control group (CTX, 26 mg/kg), isovaleryl spiramycin I groups with doses of 13, 26 and 52 mg/kg; isovaleryl spiramycin II groups with doses of 13, 26 and 52 mg/kg; isovaleryl spiramycin III groups with doses of 13, 26 and 52 mg/kg. Each group was continuously administered intragastrically for 7 days with a dose of 20 ml/kg.
The tumor-bearing mice were weighed and sacrificed the next day after the last administration. The subcutaneous tumors were dissected and weighed. The average tumor weight of each group is calculated, and the tumor inhibition rate is calculated.
Tumor inhibition rate=(1−T/C)×100%
T: average tumor weight of the drug-administered group; C: average tumor weight of the blank control group.

[2] = test system: transplanted tumor of human renal cell adenocarcinoma cell 769-P; assay: 769-P transplanted tumor in nude mice
Description: Then cell concentration was adjusted to 1×10^7/ml with matrigel, then each nude mouse was inoculated subcutaneously with 0.2 ml of cells at its right armpit and recorded as the first day of inoculation. When the tumor grows to be greater than or equal to 100 mm^3, the mice were randomly divided into 11 groups with 6 mice in each group: a model group, a cyclophosphamide group, isovaleryl spiramycin I groups with doses of 25, 50 and 100 mg/kg, isovaleryl spiramycin II groups with doses of 25, 50 and 100 mg/kg, and isovaleryl spiramycin III groups with doses of 25, 50 and 100 mg/kg. Each group was continuously administered intragastrically for 30 days with a dose of 20 ml/kg. The mice were sacrificed the next day after drug withdrawal and the indicators were tested. The long diameter and short diameter of the tumor, and the weight of each mouse were recorded every 3 days from drug administration to nude mouse sacrifice.
The body weight of the nude mice and the long diameter (a) and short diameter (b) of the transplanted tumor were measured every 3 days, and the tumor volume (v), relative tumor volume (RTV) and relative tumor proliferation rate (T/C) are calculated respectively according to the following formulas, wherein V=a×b^2/2; RTV=V/V0 (V0 is the tumor volume before administration, V is the tumor volume before sacrifice), and T/C (%)=treatment group RTV/model control group RTV×100%.
Each mouse was weighed and sacrificed. After the tumor was completely stripped off from the body of the mouse, the non-tumor tissues such as blood stains and fat were removed to weigh the tumor and calculate the tumor growth inhibition rate. The average tumor weight of each group of mice is used as an indicator of efficacy. Tumor growth inhibition rate (%)=(1−the average tumor weight of the treatment group/the average tumor weight of the model group)×100%.

[3] = test system: human promyelocytic leukemia cell HL-60; conditions: HL-60, MTT, 48 h
Description: (§1) The purpose of the assay is to evaluate the in vitro cell proliferation inhibition or cytotoxic activity of a tested sample.
(§2) U937 and HL-60 were suspension cells, and cells in a logarithmic growth phase were selected and prepared into a 2×10^5/ml cell suspension by a RPMI 1640 culture medium containing 10% fetal bovine serum. And the cell suspension was inoculated in a 96-well culture plate, and each well was 50 μL and the 96-well culture plate was cultured at 37° C. and 5% CO2 for 24 hours. 50 μL of a culture medium containing different concentrations of the tested sample isovaleryl spiramycin I, isovaleryl spiramycin II, or isovaleryl spiramycin III was added in the experimental group, while a culture medium containing the same volume of solvent was added into the control group. Each group was set up with 3 parallel wells that were cultured at 37° C. and 5% CO2 for 48 h. And 10 μL of freshly prepared medium containing 5 mg/ml MTT was added into each well for continuous incubation for 4 hours at 37° C. The crystals were dissolved in 100 μL of a triple solution (SDS 10 g, 10 M HCl 0.1 mL, isobutanol 5 mL, diluted with distilled water to 100 mL), and incubated at 37° C. for 12 hours. The optical density value was measured at 492 nm with a microplate reader.
(§3) The inhibition rate of the medicament on tumor cell growth is calculated according to the following formula:
(§4) Tumor cell growth inhibition rate (%)=[A492 (negative control)−A492 (dosing group)]/A492 (negative control)×100%
(§5) And the half-inhibitory concentration (IC50) of the sample is determined therefrom.

[4] = test system: human tissue lymphoma cell U937; conditions: U937, MTT, 48 h
Description: as §1, §2, §3, §4, §5

[5] = 769-P, high dose (100 mg/kg in method) i.g. 30 days
[6] = 769-P, low dose (25 mg/kg in method) i.g. 30 days
[7] = 769-P, medium dose (50 mg/kg in method) i.g. 30 days

O=P1(N(CCCl)CCCl)NCCCO1 (centres unmarked) [Cyclophosphamide, cyclophosphamide, reference compound]
weight compared with the normal control group ([1]; H22, CTX 26 mg/kg i.g. 7 days): slight decrease
tumor inhibition rate ([1]; Kunming mouse H22 liver cancer, CTX 26 mg/kg i.g. 7 days): 73.03%
Inhibition Rate (%) ([1]; dose 26 mg/kg): 73.03%
Tumor ([1]; dose 26 mg/kg): 0.41 ± 0.27 g
Body Weight (g) (d1) ([1]; dose 26 mg/kg, d 1): 23.72 ± 1.79 g
Body Weight (g) (d 7) ([1]; dose 26 mg/kg, d 7): 23.68 ± 1.32 g
Relative Tumor Proliferation Rate (T/C) ([1]; dose 30 mg/kg): 28.78
Relative Tumor Volume (RTV) ([1]; dose 30 mg/kg): 2.86 ± 1.44
Tumor Volume (mm3) (d 1) ([1]; dose 30 mg/kg, d 1): 119.60 ± 31.11 mm3
Tumor Volume (mm3) (d30) ([1]; dose 30 mg/kg): 307.34 ± 79.91 mm3
Inhibition Rate (%) ([2]; 769-P nude mice, 30 mg/kg): 70.52%
Relative Tumor Proliferation Rate (T/C) ([2]; 769-P nude mice, 30 mg/kg): 35.34%
Relative Tumor Volume (RTV) ([2]; 769-P nude mice, 30 mg/kg): 6.52 ± 0.90
Tumor Weight ([2]; 769-P nude mice, 30 mg/kg): 0.6 ± 0.03 g
Body Weight (g) (d1) ([2]; 769-P nude mice, 30 mg/kg, d1): 21.61 ± 1.00 g
Tumor Volume (mm3) (d 1) ([2]; 769-P nude mice, 30 mg/kg, d1): 107.92 ± 15.94 mm3
Body Weight (g) (d30) ([2]; 769-P nude mice, 30 mg/kg, d30): 21.58 ± 0.81 g
Tumor Volume (mm3) (d30) ([2]; 769-P nude mice, 30 mg/kg, d30): 704.00 ± 45.50 mm3

CO[C@@H]1[C@@H](O[C@@H]2O[C@H](C)[C@@H](O[C@H]3C[C@@](C)(O)[C@@H](OC(=O)CC(C)C)[C@H](C)O3)[C@H](N(C)C)[C@H]2O)[C@@H](CC=O)C[C@@H](C)[C@@H](O[C@H]2CC[C@H](N(C)C)[C@@H](C)O2)/C=C/C=C/C[C@@H](C)OC(=O)C[C@H]1O [Isovaleryl spiramycin I, isovaleryl spiramycin I]
growth of H22 liver cancer in mice ([1]; 13, 26 and 52 mg/kg i.g. 7 days): significantly inhibit
Relative Tumor Proliferation Rate (T/C) ([1]; dose 12.5 mg/kg): 54.47
Relative Tumor Volume (RTV) ([1]; dose 12.5 mg/kg): 5.41 ± 1.42
Tumor Volume (mm3) (d 1) ([1]; dose 12.5 mg/kg, d 1): 120.26 ± 24.42 mm3
Tumor Volume (mm3) (d30) ([1]; dose 12.5 mg/kg): 657.57 ± 231.56 mm3
Inhibition Rate (%) ([1]; dose 13 mg/kg): 42.11%
Tumor ([1]; dose 13 mg/kg): 0.88 ± 0.38 g
Relative Tumor Proliferation Rate (T/C) ([1]; dose 25 mg/kg): 48.27
Relative Tumor Volume (RTV) ([1]; dose 25 mg/kg): 4.79 ± 0.64
Tumor Volume (mm3) (d 1) ([1]; dose 25 mg/kg, d 1): 118.32 ± 11.90 mm3
Tumor Volume (mm3) (d30) ([1]; dose 25 mg/kg): 563.69 ± 463.08 mm3
Inhibition Rate (%) ([1]; dose 26 mg/kg): 55.26%
Tumor ([1]; dose 26 mg/kg): 0.68 ± 0.24 g
Relative Tumor Proliferation Rate (T/C) ([1]; dose 50 mg/kg): 29.78
Relative Tumor Volume (RTV) ([1]; dose 50 mg/kg): 2.96 ± 0.39
Tumor Volume (mm3) (d 1) ([1]; dose 50 mg/kg, d 1): 120.68 ± 13.76 mm3
Tumor Volume (mm3) (d30) ([1]; dose 50 mg/kg): 359.74 ± 480.81 mm3
Inhibition Rate (%) ([1]; dose 52 mg/kg): 65.79%
Tumor ([1]; dose 52 mg/kg): 0.52 ± 0.68 g
Body Weight (g) (d1) ([1]; mouse, in vivo, 13 mg/kg): 24.55 ± 1.00 g
Body Weight (g) (d 7) ([1]; mouse, in vivo, 13 mg/kg): 26.23 ± 0.79 g
Body Weight (g) (d1) ([1]; mouse, in vivo, 26 mg/kg): 23.83 ± 2.36 g
Body Weight (g) (d 7) ([1]; mouse, in vivo, 26 mg/kg): 26.68 ± 1.85 g
Body Weight (g) (d1) ([1]; mouse, in vivo, 52 mg/kg): 24.02 ± 2.83 g
Body Weight (g) (d 7) ([1]; mouse, in vivo, 52 mg/kg): 27.87 ± 1.57 g
Inhibition Rate (%) ([2]; 769-P nude mice, 25 mg/kg): 33.68%
Relative Tumor Proliferation Rate (T/C) ([2]; 769-P nude mice, 25 mg/kg): 75.78%
Relative Tumor Volume (RTV) ([2]; 769-P nude mice, 25 mg/kg): 13.99 ± 3.52
Tumor Weight ([2]; 769-P nude mice, 25 mg/kg): 1.37 ± 0.55 g
Tumor Volume (mm3) (d 1) ([2]; 769-P nude mice, 25 mg/kg, d1): 106.47 ± 6.86 mm3
Tumor Volume (mm3) (d30) ([2]; 769-P nude mice, 25 mg/kg, d30): 1489.03 ± 450.17 mm3
Inhibition Rate (%) ([2]; 769-P nude mice, 50 mg/kg): 47.33%
Relative Tumor Proliferation Rate (T/C) ([2]; 769-P nude mice, 50 mg/kg): 57.12%
Relative Tumor Volume (RTV) ([2]; 769-P nude mice, 50 mg/kg): 10.54 ± 2.65
Tumor Weight ([2]; 769-P nude mice, 50 mg/kg): 1.09 ± 0.48 g
Tumor Volume (mm3) (d 1) ([2]; 769-P nude mice, 50 mg/kg, d1): 96.82 ± 8.51 mm3
Tumor Volume (mm3) (d30) ([2]; 769-P nude mice, 50 mg/kg, d30): 1020.75 ± 282.92 mm3
Inhibition Rate (%) ([2]; 769-P nude mice, 100 mg/kg): 68.82%
Relative Tumor Proliferation Rate (T/C) ([2]; 769-P nude mice, 100 mg/kg): 36.88%
Relative Tumor Volume (RTV) ([2]; 769-P nude mice, 100 mg/kg): 6.81 ± 0.30
Tumor Weight ([2]; 769-P nude mice, 100 mg/kg): 0.64 ± 0.01 g
Tumor Volume (mm3) (d 1) ([2]; 769-P nude mice, 100 mg/kg, d1): 103.26 ± 9.71 mm3
Tumor Volume (mm3) (d30) ([2]; 769-P nude mice, 100 mg/kg, d30): 702.74 ± 37.66 mm3
Relative Tumor Proliferation Rate (T/C) [2, 5]: 36.88%
tumor growth inhibition rate [2, 5]: 68.82%
Relative Tumor Proliferation Rate (T/C) [2, 6]: 75.78%
tumor growth inhibition rate [2, 6]: 33.68%
tumor volume and relative tumor volume compared with the model group ([2]; 769-P, low, medium and high doses, P<0.05): significantly lower
Relative Tumor Proliferation Rate (T/C) [2, 7]: 57.12%
tumor growth inhibition rate [2, 7]: 47.33%
mouse weight compared with the model group ([2]; mouse, in vivo): no significant changes
Body Weight (g) (d1) ([2]; mouse, in vivo, 25 mg/kg): 21.44 ± 1.45 g
Body Weight (g) (d30) ([2]; mouse, in vivo, 25 mg/kg): 21.87 ± 0.89 g
Body Weight (g) (d1) ([2]; mouse, in vivo, 50 mg/kg): 21.79 ± 1.37 g
Body Weight (g) (d30) ([2]; mouse, in vivo, 50 mg/kg): 22.00 ± 0.94 g
Body Weight (g) (d1) ([2]; mouse, in vivo, 100 mg/kg): 21.39 ± 1.24 g
Body Weight (g) (d30) ([2]; mouse, in vivo, 100 mg/kg): 21.88 ± 0.54 g
IC50 [3]: 16.52 ± 1.26 µg/mL (≈ 17.8 µM)
IC50 [4]: 10.88 ± 0.05 µg/mL (≈ 11.7 µM)
